Measured values from article PMC4851326, “Pharmacologic Comparison of Clinical Neutral Endopeptidase Inhibitors in a Rat Model of Acute Secretory Diarrhea” (The Journal of Pharmacology and Experimental Therapeutics, 2016).

How the values were obtained:
ACE = target: T1, ACE (Homo sapiens, UniProt P12821); experiment: Purified peptidase assay, ACE; format: biochemical; conditions: recombinant purified human enzyme; for prodrugs the active form was tested
T1 construct: purchased R&D Systems (Minneapolis, MN)
T1 sequence (P12821 30-1306): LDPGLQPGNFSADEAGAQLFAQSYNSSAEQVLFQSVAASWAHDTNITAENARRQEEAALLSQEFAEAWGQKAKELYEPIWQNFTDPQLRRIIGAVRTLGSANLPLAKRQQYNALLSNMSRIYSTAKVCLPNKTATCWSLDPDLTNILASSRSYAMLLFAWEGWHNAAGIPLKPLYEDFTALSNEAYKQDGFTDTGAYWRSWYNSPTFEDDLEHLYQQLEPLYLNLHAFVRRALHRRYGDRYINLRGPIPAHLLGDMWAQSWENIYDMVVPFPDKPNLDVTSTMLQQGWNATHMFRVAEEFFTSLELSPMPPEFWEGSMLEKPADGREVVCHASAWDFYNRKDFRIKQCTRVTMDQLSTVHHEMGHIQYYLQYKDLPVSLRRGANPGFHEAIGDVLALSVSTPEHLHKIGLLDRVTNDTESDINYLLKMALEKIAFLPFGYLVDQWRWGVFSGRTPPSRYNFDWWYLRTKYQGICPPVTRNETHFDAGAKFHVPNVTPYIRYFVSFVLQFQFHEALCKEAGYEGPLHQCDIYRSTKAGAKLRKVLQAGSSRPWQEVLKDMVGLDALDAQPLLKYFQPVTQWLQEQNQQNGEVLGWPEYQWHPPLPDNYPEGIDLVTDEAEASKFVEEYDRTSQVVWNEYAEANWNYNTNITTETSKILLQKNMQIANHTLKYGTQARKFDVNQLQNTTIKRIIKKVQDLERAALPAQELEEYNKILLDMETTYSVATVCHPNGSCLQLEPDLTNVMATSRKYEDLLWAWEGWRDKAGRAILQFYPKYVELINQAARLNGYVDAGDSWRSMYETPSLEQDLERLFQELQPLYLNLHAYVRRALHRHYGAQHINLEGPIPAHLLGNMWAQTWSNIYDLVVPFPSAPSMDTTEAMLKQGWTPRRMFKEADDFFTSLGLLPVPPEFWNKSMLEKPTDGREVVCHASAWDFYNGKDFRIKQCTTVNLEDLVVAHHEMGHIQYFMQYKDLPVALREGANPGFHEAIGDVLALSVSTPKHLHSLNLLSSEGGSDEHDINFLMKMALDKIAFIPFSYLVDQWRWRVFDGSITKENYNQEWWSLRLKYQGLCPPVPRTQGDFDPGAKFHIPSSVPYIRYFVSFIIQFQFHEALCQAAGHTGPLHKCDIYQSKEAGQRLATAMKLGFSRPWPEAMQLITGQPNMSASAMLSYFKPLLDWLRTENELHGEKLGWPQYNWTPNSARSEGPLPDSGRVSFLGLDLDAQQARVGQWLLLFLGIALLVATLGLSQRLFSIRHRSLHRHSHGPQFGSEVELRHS
Procedure: (§1) Purified recombinant human enzymes were purchased from R&D Systems (Minneapolis, MN). […] Each substrate was diluted to 100 μM in the assay buffer recommended for each enzyme by the supplier. […] To these, 5 μl of diluted enzyme was added, followed by 10 μl of the quenched peptide substrate. The plates were incubated at 37°C until at least 10% substrate turnover or 5 μM product had formed. Fluorescence was measured using a Tecan Safire II (Excitation 320 nm/Emission 420 nm). Each plate included a standard curve of reaction product and positive (no enzyme) and negative (dimethyl sulfoxide vehicle) controls. Dose-response data were plotted and inhibition values (IC50) determined by linear regression analysis using GraphPad Prism (GraphPad Software, La Jolla, CA).

IDE = target: T2, IDE (Homo sapiens, UniProt P14735); experiment: Purified peptidase assay, IDE; format: biochemical; conditions: recombinant purified human enzyme; for prodrugs the active form was tested
T2 construct: purchased R&D Systems (Minneapolis, MN)
T2 sequence (P14735 1-1019): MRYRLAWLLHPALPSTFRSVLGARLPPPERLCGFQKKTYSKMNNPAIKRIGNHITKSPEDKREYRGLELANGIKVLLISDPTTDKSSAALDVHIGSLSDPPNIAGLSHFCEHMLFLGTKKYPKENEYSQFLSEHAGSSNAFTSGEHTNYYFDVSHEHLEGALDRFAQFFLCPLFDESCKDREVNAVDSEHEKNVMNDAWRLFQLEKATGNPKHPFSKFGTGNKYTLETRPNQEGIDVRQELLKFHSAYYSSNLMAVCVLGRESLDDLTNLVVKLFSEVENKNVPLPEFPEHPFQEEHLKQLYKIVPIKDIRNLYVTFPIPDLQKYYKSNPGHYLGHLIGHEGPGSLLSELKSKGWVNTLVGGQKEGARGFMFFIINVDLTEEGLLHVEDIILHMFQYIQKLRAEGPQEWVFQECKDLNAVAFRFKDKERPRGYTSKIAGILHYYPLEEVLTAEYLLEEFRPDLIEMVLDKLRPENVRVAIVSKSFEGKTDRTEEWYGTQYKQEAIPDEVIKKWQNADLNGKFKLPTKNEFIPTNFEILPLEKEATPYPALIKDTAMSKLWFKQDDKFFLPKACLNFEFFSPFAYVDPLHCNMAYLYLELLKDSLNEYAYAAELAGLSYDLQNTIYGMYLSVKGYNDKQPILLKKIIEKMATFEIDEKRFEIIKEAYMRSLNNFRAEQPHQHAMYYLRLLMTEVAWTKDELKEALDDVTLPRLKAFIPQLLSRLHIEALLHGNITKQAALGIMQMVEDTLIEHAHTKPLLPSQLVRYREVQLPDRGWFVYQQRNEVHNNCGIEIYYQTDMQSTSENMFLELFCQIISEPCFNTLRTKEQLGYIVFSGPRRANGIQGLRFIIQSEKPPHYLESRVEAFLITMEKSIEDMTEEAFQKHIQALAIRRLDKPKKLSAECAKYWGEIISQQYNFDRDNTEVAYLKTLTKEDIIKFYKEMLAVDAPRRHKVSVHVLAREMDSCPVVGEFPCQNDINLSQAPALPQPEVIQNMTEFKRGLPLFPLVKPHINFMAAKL
Procedure: as §1

ECE-2 = target: T3, ECE-2 (Homo sapiens, UniProt P0DPD6); experiment: Purified peptidase assay, ECE-2; format: biochemical; conditions: recombinant purified human enzyme; for prodrugs the active form was tested
T3 construct: purchased R&D Systems (Minneapolis, MN)
T3 sequence (P0DPD6 1-811): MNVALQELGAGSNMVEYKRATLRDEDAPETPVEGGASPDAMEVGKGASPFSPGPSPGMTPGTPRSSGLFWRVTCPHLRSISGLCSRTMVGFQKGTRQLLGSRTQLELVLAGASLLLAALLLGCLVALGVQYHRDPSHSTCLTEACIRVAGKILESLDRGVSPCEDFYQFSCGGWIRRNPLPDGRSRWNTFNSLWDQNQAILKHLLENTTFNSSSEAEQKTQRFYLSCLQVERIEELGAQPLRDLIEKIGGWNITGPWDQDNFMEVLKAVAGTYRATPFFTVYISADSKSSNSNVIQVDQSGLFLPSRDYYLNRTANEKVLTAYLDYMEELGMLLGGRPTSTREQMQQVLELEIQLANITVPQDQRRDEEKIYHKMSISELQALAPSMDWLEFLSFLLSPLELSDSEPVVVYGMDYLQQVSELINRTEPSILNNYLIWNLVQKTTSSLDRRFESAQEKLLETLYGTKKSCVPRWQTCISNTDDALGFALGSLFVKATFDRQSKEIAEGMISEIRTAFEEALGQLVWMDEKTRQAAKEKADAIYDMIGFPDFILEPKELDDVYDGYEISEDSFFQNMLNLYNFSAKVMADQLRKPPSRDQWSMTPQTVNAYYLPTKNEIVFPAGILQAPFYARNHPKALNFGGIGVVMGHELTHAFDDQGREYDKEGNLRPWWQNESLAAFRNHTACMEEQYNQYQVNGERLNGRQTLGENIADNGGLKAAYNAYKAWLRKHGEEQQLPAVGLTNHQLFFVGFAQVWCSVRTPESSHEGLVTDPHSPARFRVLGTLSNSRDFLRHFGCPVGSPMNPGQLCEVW
Procedure: as §1

aminopeptidase N = target: T4, aminopeptidase N (Homo sapiens, UniProt P15144); experiment: Purified peptidase assay, APN; format: biochemical; conditions: recombinant purified human enzyme; for prodrugs the active form was tested
T4 construct: purchased R&D Systems (Minneapolis, MN)
T4 sequence (P15144 whole entry): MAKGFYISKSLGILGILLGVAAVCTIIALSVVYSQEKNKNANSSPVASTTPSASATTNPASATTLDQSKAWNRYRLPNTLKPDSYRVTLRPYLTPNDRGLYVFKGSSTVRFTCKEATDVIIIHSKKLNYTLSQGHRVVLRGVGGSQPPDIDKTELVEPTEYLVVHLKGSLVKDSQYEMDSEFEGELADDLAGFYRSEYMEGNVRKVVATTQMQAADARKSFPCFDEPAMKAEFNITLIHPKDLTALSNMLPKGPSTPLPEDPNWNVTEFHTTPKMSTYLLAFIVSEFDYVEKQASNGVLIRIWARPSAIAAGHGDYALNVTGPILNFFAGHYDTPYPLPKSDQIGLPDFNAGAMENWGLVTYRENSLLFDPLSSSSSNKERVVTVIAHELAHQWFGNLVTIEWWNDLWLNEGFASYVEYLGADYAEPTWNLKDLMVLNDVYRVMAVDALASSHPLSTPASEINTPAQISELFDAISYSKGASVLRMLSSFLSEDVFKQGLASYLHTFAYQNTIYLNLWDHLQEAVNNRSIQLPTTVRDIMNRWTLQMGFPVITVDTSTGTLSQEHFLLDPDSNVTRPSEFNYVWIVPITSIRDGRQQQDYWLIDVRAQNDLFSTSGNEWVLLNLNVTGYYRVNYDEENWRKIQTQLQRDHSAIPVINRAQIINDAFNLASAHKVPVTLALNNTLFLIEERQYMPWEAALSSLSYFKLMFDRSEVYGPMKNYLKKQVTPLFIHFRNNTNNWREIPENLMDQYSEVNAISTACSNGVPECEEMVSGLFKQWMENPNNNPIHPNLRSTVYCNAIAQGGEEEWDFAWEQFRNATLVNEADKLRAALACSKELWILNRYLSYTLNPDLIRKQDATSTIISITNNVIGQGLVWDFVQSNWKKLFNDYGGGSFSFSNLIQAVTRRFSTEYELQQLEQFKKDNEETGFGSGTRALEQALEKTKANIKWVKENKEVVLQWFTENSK
Procedure: as §1

NEP [1] = target: T5, NEP (Homo sapiens, UniProt P08473); experiment: Purified peptidase assay, NEP; format: biochemical; conditions: recombinant purified human enzyme; for prodrugs the active form was tested
T5 construct: purchased R&D Systems (Minneapolis, MN)
T5 sequence (P08473 whole entry): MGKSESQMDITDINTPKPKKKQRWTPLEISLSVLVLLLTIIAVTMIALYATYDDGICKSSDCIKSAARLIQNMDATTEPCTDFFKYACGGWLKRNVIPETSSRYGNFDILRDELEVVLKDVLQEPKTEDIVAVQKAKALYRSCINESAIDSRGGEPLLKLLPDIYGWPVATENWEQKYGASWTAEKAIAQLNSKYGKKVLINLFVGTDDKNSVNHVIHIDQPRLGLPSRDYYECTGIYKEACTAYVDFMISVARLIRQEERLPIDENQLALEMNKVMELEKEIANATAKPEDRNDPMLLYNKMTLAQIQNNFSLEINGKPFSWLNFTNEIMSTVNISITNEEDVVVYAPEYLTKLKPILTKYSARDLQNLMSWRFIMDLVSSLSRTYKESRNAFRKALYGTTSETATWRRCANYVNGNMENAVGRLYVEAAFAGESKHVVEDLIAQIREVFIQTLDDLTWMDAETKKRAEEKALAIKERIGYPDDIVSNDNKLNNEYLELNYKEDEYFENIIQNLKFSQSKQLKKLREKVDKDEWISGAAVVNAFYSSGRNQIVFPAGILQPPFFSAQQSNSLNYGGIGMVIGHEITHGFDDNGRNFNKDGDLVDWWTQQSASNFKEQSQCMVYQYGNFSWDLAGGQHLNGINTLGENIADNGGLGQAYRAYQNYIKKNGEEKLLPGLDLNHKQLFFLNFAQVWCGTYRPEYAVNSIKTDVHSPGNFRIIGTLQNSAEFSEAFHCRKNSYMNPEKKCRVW
Procedure: as §1

ECE-1 = target: T6, ECE-1 (Homo sapiens, UniProt P42892); experiment: biochemical; conditions: recombinant purified human enzyme; for prodrugs the active form was tested
T6 construct: purchased R&D Systems (Minneapolis, MN)
T6 sequence (P42892 1-770): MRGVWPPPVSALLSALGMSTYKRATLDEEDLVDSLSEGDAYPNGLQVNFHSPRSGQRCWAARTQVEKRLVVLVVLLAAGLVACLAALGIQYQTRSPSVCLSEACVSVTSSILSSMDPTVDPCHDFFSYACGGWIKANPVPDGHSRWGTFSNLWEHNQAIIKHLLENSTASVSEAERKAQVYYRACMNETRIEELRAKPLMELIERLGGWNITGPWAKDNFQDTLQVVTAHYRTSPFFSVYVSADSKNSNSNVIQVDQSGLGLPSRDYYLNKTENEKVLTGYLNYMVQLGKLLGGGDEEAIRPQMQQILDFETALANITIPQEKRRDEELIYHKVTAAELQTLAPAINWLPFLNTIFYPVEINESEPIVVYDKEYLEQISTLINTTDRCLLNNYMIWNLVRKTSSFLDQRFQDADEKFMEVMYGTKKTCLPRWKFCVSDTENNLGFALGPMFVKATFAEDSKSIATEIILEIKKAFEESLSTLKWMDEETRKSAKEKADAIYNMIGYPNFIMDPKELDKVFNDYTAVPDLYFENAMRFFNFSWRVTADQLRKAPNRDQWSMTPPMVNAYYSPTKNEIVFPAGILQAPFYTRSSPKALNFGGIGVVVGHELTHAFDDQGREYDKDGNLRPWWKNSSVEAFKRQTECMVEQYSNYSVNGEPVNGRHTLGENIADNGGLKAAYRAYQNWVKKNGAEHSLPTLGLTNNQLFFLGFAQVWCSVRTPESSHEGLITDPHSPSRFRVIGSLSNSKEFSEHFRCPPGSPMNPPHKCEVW
Procedure: as §1

[2] = target: T7, puromycin-sensitive aminopeptidase (Homo sapiens, UniProt P55786); experiment: Purified peptidase assay, PSA; format: biochemical; conditions: recombinant purified human enzyme; for prodrugs the active form was tested
T7 construct: purchased R&D Systems (Minneapolis, MN)
T7 sequence (P55786 whole entry): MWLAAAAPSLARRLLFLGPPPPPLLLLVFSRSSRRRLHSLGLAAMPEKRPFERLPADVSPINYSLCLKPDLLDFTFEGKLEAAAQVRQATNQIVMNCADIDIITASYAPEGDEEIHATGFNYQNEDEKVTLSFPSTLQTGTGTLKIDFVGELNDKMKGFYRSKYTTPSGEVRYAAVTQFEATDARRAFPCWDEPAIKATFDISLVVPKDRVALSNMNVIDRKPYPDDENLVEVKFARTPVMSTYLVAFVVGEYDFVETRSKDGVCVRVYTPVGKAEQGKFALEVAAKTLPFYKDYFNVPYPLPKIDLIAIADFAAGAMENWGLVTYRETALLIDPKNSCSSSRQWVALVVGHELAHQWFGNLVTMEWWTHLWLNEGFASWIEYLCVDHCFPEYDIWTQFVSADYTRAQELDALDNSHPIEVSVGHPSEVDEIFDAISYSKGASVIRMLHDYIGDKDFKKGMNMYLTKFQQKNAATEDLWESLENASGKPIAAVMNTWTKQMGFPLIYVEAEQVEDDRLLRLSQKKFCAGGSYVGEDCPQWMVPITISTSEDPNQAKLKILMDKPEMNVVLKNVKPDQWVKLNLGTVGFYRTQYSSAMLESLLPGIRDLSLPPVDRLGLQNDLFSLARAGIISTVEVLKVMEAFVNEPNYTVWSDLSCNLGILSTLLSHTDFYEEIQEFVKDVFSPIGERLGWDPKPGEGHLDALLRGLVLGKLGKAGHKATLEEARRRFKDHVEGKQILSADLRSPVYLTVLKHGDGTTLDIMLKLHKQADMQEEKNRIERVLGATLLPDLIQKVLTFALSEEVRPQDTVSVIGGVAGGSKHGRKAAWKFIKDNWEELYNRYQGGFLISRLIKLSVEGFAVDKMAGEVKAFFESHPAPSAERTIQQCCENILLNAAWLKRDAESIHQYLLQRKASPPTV
Procedure: as §1

[3] = tested on: castor oil–induced diarrhea; experiment: Castor oil–induced diarrhea model; format: in vivo, rat
Procedure: Experiments were performed with 6-to-7-week-old male Wistar rats obtained from Charles River Laboratories (Wilmington, MA). All animals were housed in Saint Louis University facilities under controlled conditions of temperature, humidity, and a 12-hour light/dark cycle. They were maintained on standard rodent chow with free access to water. Animal care and all procedures were performed in accordance with the National Institutes of Health Guide for the Care and Use of Laboratory Animals and approved by the university’s institutional animal care and use committee.
Animals were weighed and individually housed in metabolic cages containing white paper underneath to collect feces. Test compounds or vehicles were administered by oral gavage (5 ml/kg), and then at indicated times, 10 ml/kg body weight of 100% castor oil was administered by oral gavage to induce diarrhea. Animals had access to food within 5 minutes. Stool weight was recorded starting 15 minutes after castor oil administration and repeated every 15 minutes up to 4 hours. […] After 4 hours, animals were euthanized with CO2, and blood and tissues were collected for analyses.

intestinal motility = experiment: Charcoal meal model of intestinal motility; format: in vivo, rat; conditions: oral, 30 minutes before charcoal meal, distance traveled in 20 minutes, dose not given (Fig. 5)
Procedure: Rats were fasted for 18 hours before the experiment, with free access to water. Animals were weighed, and vehicle or compounds were administered by oral gavage. […] After 30 minutes, each animal received standard charcoal meal (10% suspension of activated charcoal in 5% gum arabic) by oral gavage (5 ml/kg). Animals were given access to food within 1 minute and sacrificed 20 minutes after the charcoal meal. The intestines were carefully removed. Motility was calculated as the measured distance traveled by the charcoal as a percentage of total length from pyloric sphincter to ileocecal junction.

NEP [4] = target: T8, NEP (Rattus norvegicus, UniProt P07861); experiment: NEP enzyme activity in tissues after oral treatment; format: in vivo; conditions: normal rats; for Relative NEP inhibition, duodenum / Relative NEP inhibition, jejunum / Relative NEP inhibition, kidney / Relative NEP inhibition, lung: vs vehicle
T8 construct: NEP enzyme activity was measured in tissue homogenates; from tissue; host or cells: Wistar rat kidney, lung, duodenum, jejunum homogenates
T8 sequence (P07861 1-750): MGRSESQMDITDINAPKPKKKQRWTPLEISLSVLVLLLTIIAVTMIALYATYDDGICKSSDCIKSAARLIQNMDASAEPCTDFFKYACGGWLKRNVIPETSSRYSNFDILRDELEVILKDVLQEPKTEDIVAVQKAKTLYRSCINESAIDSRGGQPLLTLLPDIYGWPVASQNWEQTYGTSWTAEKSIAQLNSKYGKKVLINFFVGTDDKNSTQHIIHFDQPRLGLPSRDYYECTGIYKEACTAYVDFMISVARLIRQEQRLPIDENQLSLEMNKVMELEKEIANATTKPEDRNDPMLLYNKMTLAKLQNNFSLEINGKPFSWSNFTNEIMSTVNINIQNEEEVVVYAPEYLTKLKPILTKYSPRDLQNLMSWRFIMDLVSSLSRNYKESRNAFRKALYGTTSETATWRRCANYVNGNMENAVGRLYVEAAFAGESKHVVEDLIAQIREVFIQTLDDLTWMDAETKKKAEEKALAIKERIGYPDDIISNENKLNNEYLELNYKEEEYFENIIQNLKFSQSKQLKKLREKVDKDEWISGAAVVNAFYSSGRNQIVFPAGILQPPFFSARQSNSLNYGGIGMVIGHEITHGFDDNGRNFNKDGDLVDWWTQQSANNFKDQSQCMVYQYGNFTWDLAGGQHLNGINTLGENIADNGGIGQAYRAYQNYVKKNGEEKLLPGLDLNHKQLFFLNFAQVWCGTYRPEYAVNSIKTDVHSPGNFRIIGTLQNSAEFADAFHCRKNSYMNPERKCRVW
Procedure: Four or five 2-mm Zirconia beads (Biospec, Bartlesville, OK) were added to fresh weighed tissue specimens (50–250 mg). Assay buffer consisting of 50 mM Tris-HCl (pH 7.4), 200 mM NaCl, and 0.05% TritonX-100 was added (4 μl/mg), and the sample was homogenized for 1 minute using a bead beater (Biospec). Stored frozen homogenates were thawed at room temperature and centrifuged 10 minutes at 18,000g, and the protein concentration was determined for each supernatant. […] NEP substrate 2Abz-dArg-Gly-Leu-C2-Dnp (American Peptide, Sunnyvale, CA) was prepared at 1 mM in 20% acetonitrile/water and diluted to 100 μM in assay buffer, and 10 μl was dispensed to homogenate-containing wells. […] Kinetic data were plotted to determine the rate of product formation by linear regression with interpolation against a standard curve, and the rate was normalized to protein concentration.

[5] = 1 h after single oral dose (Race 100, Candox 150, Sac 100, UK 100 mg/kg)
[6] = 5 h after single oral dose (Race 100, Candox 150, Sac 100, UK 100 mg/kg)

CC1(C)CCC[C@H](NC(=O)[C@@H](S)Cc2ccccc2)C(=O)N1CC(=O)O [Gemopatrilat]
IC50 (ACE): 0.23 µM | IC50 (IDE): > 100 µM | IC50 (ECE-2): 77 µM | IC50 (aminopeptidase N): 18 µM | IC50 (NEP [1]): 0.06 µM | IC50 (ECE-1): 12 µM | IC50 [2]: 18 µM

O=C(N[C@H]1CCS[C@H]2CCC[C@@H](C(=O)O)N2C1=O)[C@@H](S)Cc1ccccc1 [Omapatrilat]
IC50 (ACE): 0.19 µM | IC50 (IDE): > 100 µM | IC50 (ECE-2): 86 µM | IC50 (aminopeptidase N): 28 µM | IC50 (NEP [1]): 0.04 µM | IC50 (ECE-1): 21 µM | IC50 [2]: > 100 µM

CC(=O)SCC(Cc1ccccc1)C(=O)NCC(=O)OCc1ccccc1 (centres unmarked) [Racecadotril]
Stool output, 150 or 240 minutes predosing ([3]; 100 mg/kg oral 150 or 240 minutes before castor oil (Fig. 4B, 4C)): Neither drug was effective | Incidence of diarrhea ([3]; dose-response study (Fig. 2A), 30 minutes before castor oil, sacubitril at highest tested dose, racecadotril 100 mg/kg): 100% | Cumulative stool output over 4 hours ([3]; single oral dose 30 minutes before castor oil, fasted rats, vs vehicle (Fig. 1)): significantly reduced | Stool output, dose-response studies ([3]; single oral treatment with varying doses (racecadotril 100 mg/kg) 30 minutes before castor oil (Fig. 2A, 2C)): significantly reduced stool output | Effect on intestinal transit (charcoal meal test) (intestinal motility): no effect | Relative NEP inhibition, duodenum (NEP [4]; [5]): 98% | Relative NEP inhibition, jejunum (NEP [4]; [5]): 90% | Relative NEP inhibition, kidney (NEP [4]; [5]): 56% | Relative NEP inhibition, lung (NEP [4]; [5]): 75% | NEP enzyme activity in duodenum and jejunum (NEP [4]; 1 hour after single oral 100 mg/kg dose (Fig. 3A, B)): barely detectable levels | Relative NEP inhibition, duodenum (NEP [4]; [6]): 85% | Relative NEP inhibition, jejunum (NEP [4]; [6]): 32% | Relative NEP inhibition, kidney (NEP [4]; [6]): 39% | Relative NEP inhibition, lung (NEP [4]; [6]): 59% | NEP inhibition in lung and kidney tissue after 24 hours (NEP [4]; 24 hours after single oral 100 mg/kg dose (Fig. 3C, D)): returned to normal
